For one experiment, the system named is A549. As to the kind of experiment: cells. As to conditions: Homo sapiens, A549, 72 h.
Experiment [1] is described as follows: cells. As to conditions: Homo sapiens, NCI-H460, 72 h.
The nature of experiment [2]: Cytotoxicity against human U87MG cells assessed as inhibition of cell growth after 72 hrs by MTT assay. The conditions noted are these: U-87 MG. The experiment is classed as functional, cell-based, U-87MG ATCC. Background: Tetrazolium dyes change colour on reduction, which living cells bring about.
Experiment [3] can be described thus: cells. The conditions noted are these: Homo sapiens, MKN-45, 72 h.
Experiment [4] has as its system HT-29. As to the kind of experiment: cells. As to conditions: Homo sapiens, HT-29, 72 h.
Experiment [5] deals with HT-29. As to the kind of experiment: Ratio of foretinib IC50 to compound IC50 for human HT-29 cells. It counts as functional.
For experiment [6], the target named is Hepatocyte growth factor receptor (Homo sapiens, UniProt P08581). As to the kind of experiment: Inhibition of c-Met (unknown origin) using poly (Glu,Tyr)4:1 as substrate by homogeneous time-resolved fluorescence assay.
For experiment [7], the target named is Platelet-derived growth factor receptor beta (Homo sapiens, UniProt P09619). As to the kind of experiment: Inhibition of PDGFR beta (unknown origin).
Experiment [8] is described as follows: Ratio of foretinib IC50 to compound IC50 for human H460 cells. It counts as functional.
Experiment [9] concerns the target T1, Receptor-type tyrosine-protein kinase FLT3 (Homo sapiens, UniProt P36888).
T1 sequence (P36888 whole entry): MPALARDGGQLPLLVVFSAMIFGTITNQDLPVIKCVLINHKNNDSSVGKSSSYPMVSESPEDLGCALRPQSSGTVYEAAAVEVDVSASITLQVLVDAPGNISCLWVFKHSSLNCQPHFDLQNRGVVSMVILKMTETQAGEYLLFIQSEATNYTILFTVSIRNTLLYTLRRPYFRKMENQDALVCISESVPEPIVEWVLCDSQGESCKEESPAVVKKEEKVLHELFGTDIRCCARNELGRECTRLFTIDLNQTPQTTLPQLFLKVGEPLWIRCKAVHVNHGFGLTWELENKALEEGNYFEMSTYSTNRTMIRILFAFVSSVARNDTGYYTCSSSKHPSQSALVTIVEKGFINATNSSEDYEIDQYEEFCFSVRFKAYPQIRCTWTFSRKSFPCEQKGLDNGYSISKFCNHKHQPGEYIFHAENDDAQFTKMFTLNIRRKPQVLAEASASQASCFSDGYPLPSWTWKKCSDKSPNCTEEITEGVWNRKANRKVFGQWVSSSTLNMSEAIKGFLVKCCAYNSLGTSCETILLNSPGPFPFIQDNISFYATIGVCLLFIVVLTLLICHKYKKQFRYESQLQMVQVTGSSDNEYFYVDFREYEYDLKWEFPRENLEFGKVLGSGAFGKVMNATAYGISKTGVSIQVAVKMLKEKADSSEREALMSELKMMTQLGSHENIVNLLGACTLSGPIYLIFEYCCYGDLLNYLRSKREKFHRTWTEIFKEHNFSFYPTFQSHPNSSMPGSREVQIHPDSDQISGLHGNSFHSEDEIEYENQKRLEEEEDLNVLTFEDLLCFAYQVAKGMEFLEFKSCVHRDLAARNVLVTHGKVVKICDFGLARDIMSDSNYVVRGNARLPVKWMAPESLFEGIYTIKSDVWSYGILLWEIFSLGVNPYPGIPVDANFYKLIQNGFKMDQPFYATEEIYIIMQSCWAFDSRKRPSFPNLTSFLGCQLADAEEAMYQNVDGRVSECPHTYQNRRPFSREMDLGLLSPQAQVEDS
As to the kind of experiment: Inhibition of Flt3 (unknown origin).

In experiment [10] the target is Vascular endothelial growth factor receptor 2 (Homo sapiens, UniProt P35968). As to the kind of experiment: Inhibition of KDR (unknown origin).
Experiment [11] has as its target Mast/stem cell growth factor receptor Kit (Homo sapiens, UniProt P10721). As to the kind of experiment: Inhibition of c-Kit (unknown origin).
Experiment [12] addresses Epidermal growth factor receptor (Homo sapiens, UniProt P00533). As to the kind of experiment: Inhibition of EGFR (unknown origin).

Each structure is given as a SMILES string.

Usually IC50 stands for the concentration that gives 50% inhibition.

Take `COc1cc2c(Oc3ccc(NC(=O)c4nn(-c5cccc(F)c5)c(=O)cc4C)cc3F)ccnc2cc1OCCCN1CCCC1`: the IC50 in the experiment on A549 was found to be 170 nM; in “cells [1]”, 280 nM; in experiment [2], 1700 nM; in “cells [3]”, 120 nM; in the experiment on HT-29 [4], 250 nM.
For `COc1cc2c(Oc3ccc(NC(=O)c4nn(-c5ccc(Cl)cc5)c(=O)cc4C)cc3F)ccnc2cc1OCCCN1CCCCC1` the same measures were 320 nM, 460 nM, 1400 nM, 230 nM and 360 nM.
In the same order, the values of `COc1cc2c(Oc3ccc(NC(=O)c4nn(-c5ccc(Cl)cc5Cl)c(=O)cc4C)cc3F)ccnc2cc1OCCCN1CCCCC1` are 220 nM, 390 nM, 1800 nM, 80 nM and 290 nM.
In the same order, the values of `COc1cc2c(Oc3ccc(NC(=O)c4nn(-c5ccc(Cl)cc5)c(=O)cc4C)cc3F)ccnc2cc1OCCCN1CCCC1` are 230 nM, 360 nM, 1430 nM, 150 nM and 260 nM.
On to `COc1cc2c(Oc3ccc(NC(=O)c4nn(-c5ccc(Cl)cc5)c(=O)cc4C)cc3F)ccnc2cc1OCCCN1CCC(C)CC1`, for which the half-inhibitory concentration (IC50) in the experiment on A549 amounted to 210 nM; in “cells [1]” it was 370 nM; in experiment [2], 1350 nM; in the experiment “cells [3]” it was 150 nM; in the experiment with HT-29 [4], 180 nM.
In the same order, the values of `COc1cc2c(Oc3ccc(NC(=O)c4nn(-c5ccccc5OC(F)(F)F)c(=O)cc4C)cc3F)ccnc2cc1OCCCN1CCCC1` are 140 nM, 210 nM, 1280 nM, 60 nM and 180 nM.
In the same order, the values of `COc1cc2c(Oc3ccc(NC(=O)c4nn(-c5ccccc5)c(=O)cc4C)cc3F)ccnc2cc1OCCCN1CCCC1` are 370 nM, 460 nM, 1100 nM, 120 nM and 220 nM.
For `COc1cc2c(Oc3ccc(NC(=O)c4nn(-c5cccc(F)c5)c(=O)cc4C)cc3F)ccnc2cc1OCCCN1CCOCC1` the same measures were 550 nM, 290 nM, 1980 nM, 110 nM and 270 nM.
In the case of `COc1cc2c(Oc3ccc(NC(=O)c4nn(-c5ccc(Cl)cc5)c(=O)cc4C)cc3F)ccnc2cc1OCCCN1CCN(C)CC1`, the IC50 turned out to be 270 nM with A549; 440 nM in “cells [1]”; 1560 nM in [2]; 40 nM in the experiment “cells [3]”; 320 nM in the experiment with HT-29 [4].
For `COc1cc2c(Oc3ccc(NC(=O)c4nn(-c5ccccc5C)c(=O)cc4C)cc3F)ccnc2cc1OCCCN1CCN(C)CC1` the same measures were 2830 nM, 3420 nM, 3720 nM, 1630 nM and 3790 nM.
Turning to `COc1cc2c(Oc3ccc(NC(=O)c4nn(-c5ccccc5OC(F)(F)F)c(=O)cc4C)cc3F)ccnc2cc1OCCCN1CCC(C)CC1`, the IC50 amounted to 90 nM with A549; 290 nM in the experiment “cells [1]”; 800 nM in experiment [2]; 70 nM in “cells [3]”; 250 nM in the experiment on HT-29 [4].
In the same order, the values of `COc1cc2c(Oc3ccc(NC(=O)c4nn(-c5ccc(Cl)cc5)c(=O)cc4C)cc3F)ccnc2cc1OCCCN1CCOCC1` are 330 nM, 380 nM, 1970 nM, 70 nM and 260 nM.
In the same order, the values of `COc1cc2c(Oc3ccc(NC(=O)c4nn(-c5ccccc5C(F)(F)F)c(=O)cc4C)cc3F)ccnc2cc1OCCCN1CCCC1` are 130 nM, 210 nM, 1010 nM, 100 nM and 140 nM.
In the same order, the values of `COc1cc2c(Oc3ccc(NC(=O)c4nn(-c5cccc(F)c5)c(=O)cc4C)cc3F)ccnc2cc1OCCCN1CCCCC1` are 250 nM, 360 nM, 1500 nM, 130 nM and 290 nM.
For the compound `COc1cc2c(Oc3ccc(NC(=O)c4nn(-c5ccccc5C(F)(F)F)c(=O)cc4C)cc3F)ccnc2cc1OCCCN1CCN(C)CC1`, the half-maximal inhibitory concentration (IC50) is 170 nM with A549; 240 nM in the experiment “cells [1]”; 1170 nM in experiment [2]; 40 nM in the experiment “cells [3]”; 170 nM in the experiment with HT-29 [4].
Regarding `COc1cc2c(Oc3ccc(NC(=O)c4nn(-c5ccccc5OC(F)(F)F)c(=O)cc4C)cc3F)ccnc2cc1OCCCN1CCN(C)CC1`, the half-maximal inhibitory concentration (IC50) is 130 nM in the experiment on A549; 260 nM in the experiment “cells [1]”; 1440 nM in experiment [2]; 100 nM in “cells [3]”; 180 nM in the experiment on HT-29 [4].
For `COc1ccc(-n2nc(C(=O)Nc3ccc(Oc4ccnc5cc(OCCCN6CCC(C)CC6)c(OC)cc45)c(F)c3)c(C)cc2=O)cc1` the same measures were 1100 nM, 4650 nM, 2840 nM, 400 nM and 5450 nM.
For `COc1cc2c(Oc3ccc(NC(=O)c4nn(-c5ccccc5)c(=O)cc4C)cc3F)ccnc2cc1OCCCN1CCCCC1`, the concentration for half-maximal inhibition (IC50) in the experiment on A549 worked out at 150 nM; in “cells [1]” it was 280 nM; in experiment [2], 1370 nM; in the experiment “cells [3]”, 160 nM; with HT-29 [4], 160 nM.
Turning to `COc1cc2c(Oc3ccc(NC(=O)c4nn(-c5ccccc5OC(F)(F)F)c(=O)cc4C)cc3F)ccnc2cc1OCCCN1CCCCC1`, the IC50 was 120 nM with A549; 230 nM in “cells [1]”; 1300 nM in [2]; 40 nM in “cells [3]”; 190 nM in the experiment with HT-29 [4].
Consider `COc1cc2c(Oc3ccc(NC(=O)c4nn(-c5ccccc5C)c(=O)cc4C)cc3F)ccnc2cc1OCCCN1CCOCC1`, for which the half-inhibitory concentration (IC50) in the experiment on A549 came to 530 nM; in the experiment “cells [1]” it was 1380 nM; in experiment [2], 2000 nM; in “cells [3]”, 270 nM; in the experiment with HT-29 [4] it was 1010 nM.
Turning to `COc1cc2c(Oc3ccc(NC(=O)c4nn(-c5ccccc5C(F)(F)F)c(=O)cc4C)cc3F)ccnc2cc1OCCCN1CCOCC1`, the concentration for half-maximal inhibition (IC50) with A549 was 50 nM; in “cells [1]” it was 130 nM; in [6] it was 2.15 nM; in experiment [2], 1060 nM; in the experiment “cells [3]”, 30 nM; in experiment [7] it was 92.3 nM. In addition, the IC50 in the experiment on HT-29 [4] is 100 nM; in experiment [9], 9.28 nM; in experiment [10], 425 nM; in experiment [11], 4.32 nM; in experiment [12], more than 10000 nM. Also, the values for the Ratio IC50 (in the experiment on HT-29 [5]; in experiment [8]) were 1.9 and 1.5, respectively.
Consider `COc1cc2c(Oc3ccc(NC(=O)c4nn(-c5cccc(F)c5)c(=O)cc4C)cc3F)ccnc2cc1OCCCN1CCC(C)CC1`, for which the IC50 with A549 stood at 250 nM; in “cells [1]”, 250 nM; in experiment [2] it was 1800 nM; in “cells [3]”, 140 nM; with HT-29 [4], 300 nM.
For the compound `COc1cc2c(Oc3ccc(NC(=O)c4nn(-c5ccccc5)c(=O)cc4C)cc3F)ccnc2cc1OCCCN1CCN(C)CC1`, the IC50 in the experiment on A549 worked out at 350 nM; in “cells [1]”, 360 nM; in experiment [2], 2120 nM; in the experiment “cells [3]” it was 130 nM; in the experiment on HT-29 [4], 270 nM.
On to `COc1cc2c(Oc3ccc(NC(=O)c4nn(-c5ccccc5C)c(=O)cc4C)cc3F)ccnc2cc1OCCCN1CCC(C)CC1`, for which the IC50 is 1460 nM with A549; 2260 nM in “cells [1]”; 2240 nM in experiment [2]; 1290 nM in “cells [3]”; 2810 nM with HT-29 [4].
For `COc1cc2c(Oc3ccc(NC(=O)c4nn(-c5ccccc5OC(F)(F)F)c(=O)cc4C)cc3F)ccnc2cc1OCCCN1CCOCC1` the same measures were 120 nM, 200 nM, 1300 nM, 90 nM and 170 nM.
